From EP3875077B1, “DOSAGE FORM PROVIDING PROLONGED RELEASE OF […] SALT” (Grünenthal GmbH, priority 2020, dated 2021)
Counter-ions that a name gives are not always drawn. Like-named read-outs stand apart in the source and are kept apart here.

Assay: thermodynamic solubility (saturation solubility) in various media, quantified by HPLC
Type: physicochemical
Settings: for solubility thermodynamic at 24 h: thermodynamic from solid, read-out: thermodynamic solubility, assay expressed as base
Experimental: The thermodynamic solubility of Tapentadol hydrochloride and of Tapentadol dihydrogenphosphate (mixed form, batch with fine particles) was determined as saturation solubility in various media at various pH values. The solutions were stirred for 24 hours at 25 °C and the pH values of the solutions at the start and at the end of the experiments were measured. The dissolved amount of Tapentadol was quantified by HPLC (free base of Tapentadol).

Which results are given for `CC[C@@H](c1cccc(O)c1)[C@@H](C)CN(C)C` [Tapentadol hydrochloride, (-)-(1R,2R)-3-(3-dimethylamino-1-ethyl-2-methyl-propyl)-phenol]?
thermodynamic solubility, assay expressed as base (0.1 M HCl, 24 hours at 25 °C): 31.2 g/100 mL; thermodynamic solubility, assay expressed as base (0.15N NaOH, 24 hours at 25 °C): 6.6 g/100 mL; solubility thermodynamic at 24 h (acetate buffer pH 4.5, aqueous buffer, acetate pH 4.5, 24 hours at 25 °C): 327 mg/mL; solubility thermodynamic at 24 h (citrate buffer pH 6.8, aqueous buffer, citrate pH 6.8, 24 hours at 25 °C): 318 mg/mL; solubility thermodynamic at 24 h (citrate buffer pH 7.4, aqueous buffer, citrate pH 7.4, 24 hours at 25 °C): 319 mg/mL; solubility thermodynamic at 24 h (fassgf or other biorelevant, SIF sp pH 6.8, 24 hours at 25 °C): 324 mg/mL; solubility thermodynamic at 24 h (water, 24 hours at 25 °C): 330 mg/mL
